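These data come from cells grown in 96-well plates and exposed to compound for 48 hours at five concentrations. At the GI50, growth is halved. At the TGI there is no net growth.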
What was measured:
Assay in all cases: NCI anticancer screen, dose series, 48 h
MCF7 breast = tested on: MCF7 breast
OVCAR-3 ovarian = tested on: OVCAR-3 ovarian
NCI-H522 lung = tested on: NCI-H522 lung
SW-620 colon = tested on: SW-620 colon
IGROV1 ovarian = tested on: IGROV1 ovarian
HL-60(TB) leukemia = tested on: HL-60(TB) leukemia
SNB-75 CNS = tested on: SNB-75 CNS
NCI-H226 lung = tested on: NCI-H226 lung
HOP-92 NSCLC = tested on: HOP-92 NSCLC
786-0 renal = tested on: 786-0 renal

SMILES | TGI (MCF7 breast) | TGI (OVCAR-3 ovarian) | TGI (NCI-H522 lung) | TGI (SW-620 colon) | TGI (IGROV1 ovarian) | TGI (HL-60(TB) leukemia) | TGI (SNB-75 CNS) | TGI (NCI-H226 lung) | TGI (HOP-92 NSCLC) | TGI (786-0 renal) | GI50 (MCF7 breast) | GI50 (OVCAR-3 ovarian) | GI50 (SW-620 colon) | GI50 (SNB-75 CNS) | GI50 (NCI-H226 lung) | GI50 (HOP-92 NSCLC)
O=P1(c2ccccc2)Nc2ccccc2SSc2ccccc2N1 | 37.5 µM | 28.3 µM | 29 µM | 33.7 µM | 38.2 µM | 39.6 µM | 39.4 µM | 33.4 µM | 30.7 µM |  |  |  |  |  |  | 
O=C1NI(C#Cc2ccccc2)c2ccccc21 | 94.3 µM | > 100 µM |  | > 100 µM | > 100 µM | > 100 µM |  | > 100 µM |  | > 100 µM |  |  |  |  |  | 
COc1cc(C2CC(c3cccc(Nc4ccncc4)c3)=NN2c2ccc(Cl)cc2)cc(OC)c1OC (stereo not drawn) | 3.61 µM | 3.03 µM |  | 3.19 µM |  |  | 2.85 µM | 3.59 µM | 2.7 µM |  | 1.72 µM | 1.61 µM | 1.68 µM | 1.28 µM | 1.66 µM | 1.25 µM
COc1ccc2c(C(=O)c3cn(CCN4CCOCC4)c4ccccc34)cccc2c1 | > 80.2 µM | > 25.5 µM | > 100 µM | > 100 µM | > 100 µM | 54.3 µM | > 100 µM | > 100 µM | > 100 µM | > 100 µM |  |  |  |  |  | 
COC(C)(C)OCCN1CCN(CCN2C3=C(C=C(C(C)=O)C3)Sc3ccccc32)CC1 |  | 45.8 µM | 33.2 µM | 37.2 µM | 35.5 µM | 35.8 µM | > 100 µM | 65.6 µM | 92.9 µM | 36 µM |  |  |  |  |  | 
CC1(C)OC2C(O)C(CO)OC2(C(F)F)O1 (stereo not drawn) | > 100 µM | > 100 µM | > 100 µM | > 100 µM | > 100 µM | > 100 µM | > 100 µM | > 100 µM | > 100 µM | > 100 µM |  |  |  |  |  | 
CCCOC(=O)CNC(=O)OC(C)(C)C |  | > 100 µM | > 100 µM | > 100 µM | > 100 µM | > 100 µM | > 100 µM | > 100 µM | > 100 µM |  |  |  |  |  |  | 
Cc1cccc2c1Sc1ccccc1C2NC(=O)CCN(C)C (stereo not drawn) |  |  |  | > 100 µM | > 100 µM | > 100 µM | > 100 µM | > 100 µM |  |  |  |  |  |  |  | 
C=CCN(C(=O)CNC(=O)C(F)(F)F)c1cc(OCc2ccccc2)c2c(c1)c(C)cn2S(=O)(=O)c1ccccc1 | > 100 µM | > 100 µM | > 100 µM |  | > 100 µM |  | > 76.2 µM | > 100 µM | > 100 µM | > 100 µM |  |  |  |  |  | 
COc1ccc(-c2nc3ncccn3c2-c2ccc(SC)cc2)cc1 |  | 2.09 µM | 0.502 µM | > 100 µM | 8.15 µM | 6.61 µM | > 100 µM |  | 70.4 µM | 46 µM |  |  |  |  |  | 
CCOC(=O)c1c2c(n(Cc3ccccc3)c1C)C(=O)C(=O)c1ccccc1-2 |  | 0.167 µM |  | 1.15 µM | > 100 µM | 0.0983 µM | 2.69 µM | 1.22 µM | 3.17 µM | 1.49 µM |  |  |  |  |  | 
Nc1n[nH]c(=O)c2c1c(I)cn2C1OC(CO)C(O)C1O (stereo not drawn) |  | > 100 µM |  | > 100 µM | > 100 µM | 0.348 µM | 2.81 µM | 7.6 µM | 3.05 µM |  |  |  |  |  |  | 
CN(C)CCNC(=O)c1cccc2ccc(-c3ccc(F)cc3)nc12 | 20.5 µM | 33.5 µM | 16.9 µM | 21 µM | 20.3 µM | 7.49 µM | 19.6 µM | 11.6 µM | 18 µM |  |  |  |  |  |  | 
O=C(Nc1ccc([N+](=O)[O-])cc1[N+](=O)[O-])C(=O)C(C(=O)c1ccc2ccccc2c1)C1OC(=O)c2ccccc21 (stereo not drawn) |  |  | 22.8 µM | 30.9 µM | 43.5 µM | 35 µM | 50.7 µM | 9.48 µM | 55.6 µM |  |  |  |  |  |  | 
Oc1cn(-c2ccc(Cl)cc2)nc1-c1n[nH]c(=S)n1-c1ccccc1 | 21.9 µM | 9.4 µM | 19.5 µM | 20.4 µM | 22.2 µM | > 100 µM | > 100 µM | 59.8 µM | > 100 µM | 27.1 µM |  |  |  |  |  | 
COc1cc(/C=C/C(=O)Oc2ccc(NC(C)=O)cc2)ccc1C(=O)O/C=C/c1ccccc1 | > 100 µM | > 100 µM | > 100 µM | > 100 µM | > 100 µM | > 100 µM | > 100 µM | > 100 µM | > 100 µM |  |  |  |  |  |  | 
Nc1ccccc1N=Cc1cc2cc([N+](=O)[O-])ccc2s1 | 23 µM | 30.1 µM | > 100 µM | > 100 µM | 99.3 µM | 32 µM | 28.8 µM |  | 55.5 µM | 29.2 µM |  |  |  |  |  | 
Cc1cc2c(cc1C(=O)c1ccc(N)cc1)OCO2 | 53.8 µM | 0.966 µM | 54.4 µM | > 100 µM | > 100 µM | > 100 µM |  |  | > 100 µM | > 100 µM |  |  |  |  |  | 

From PubChem BioAssay (NCI)
